Laboratory results reported in US9546144B2, “Bifunctional compounds” (University of Pittsburgh—of the Commonwealth System of …, priority 2011, dated 2017).

Key:
C57BL/6NTac mice = assay: total body irradiation survival (hematopoietic syndrome); assay type: in vivo, mouse; details: 9.5 Gy
Description: FIG. 11. MMS350 was dissolved in PBS and injected IP at 20 mg/kg. The mice were irradiated to 9.5 Gy total body irradiation and then injected at 4 or 24 hr after irradiation.
FIG. 13. In vivo mitigation of total body irradiation by MMS350. MMS350 was dissolved in water at a concentration of 2 mg/ml. C57BL/6NTac mice (n=15/group) were irradiated to 9.5 Gy total body irradiation and injected intraperitoneally with 10 mg/kg of MMS350 at 4 or 24 hr. after irradiation. The mice were followed for the development of the hematopoietic syndrome at which time the mice were sacrificed.
MMS350 was delivered by intraperitoneal injection to C57BL/6 mice (n=15/group) before or after the 9.5 Gy of total body irradiation (a dose which kills at least 50% of mice at 30 days) and indicative of death from the hematopoietic syndrome (bone marrow failure).
Mice were irradiated using JL Shepherd Mark 1 Model 68 irradiator to 9.25 total body irradiation dose or a Varian Linear Accelerator (Varian Medical Systems, Inc, Palo Alto, Calif.) to 20 Gy for pulmonary irradiation according to published methods (2, 10, 13).
Mice were injected intra-peritoneally with MMS350 or JP4-039 (GS-nitroxide) in 50% cremphor/50% ethanol according to published methods. For long-term administration of MMS350, the drug was administered in water bottles with bottles changed every 7 days. The dose of drug per bottle was 100 μM MMS350 starting on day 88. The estimated total amount consumed by each animal daily was 10.9 μg based on a mouse drinking 5 ml of water per day. Chimeric mice irradiated to the thoracic cavity were placed 30 days later on MMS350 in water containing 100 mM MMS350. On day 88 after thoracic irradiation of non-chimeric mice, mice were placed on […] MMS350 in drinking water.

[1] = test system: fibrosis associated gene transcripts in lung; assay: RT-PCR of gene transcripts in lungs of 20 Gy thoracic irradiated mice; assay type: in vivo, mouse; details: 100 μM in drinking water continuously from day 80 after 20 Gy
Description: FIGS. 20A-20D. MMS350 decreases levels of irradiation induced endothelial and alveolar cell specific RNA levels. Endothelial and alveolar cells were isolated from the lungs of irradiated control or MMS350 treated mice at days 0, 29, 150, and 200 after 20 Gy thoracic irradiation. […] RNA was isolated and RT-PCR was performed for gene expression for: FIG. 20A oxidative stress induced promoters; FIG. 20B endothelial and alveolar cell markers; FIG. 20C fibrosis associated genes; and FIG. 20D endothelial cell markers. […]
FIGS. 21A-21C. […] Expression of BD1, BD2, BD3, and BRDT was determined.
Measurement of Levels of Gene Transcripts for Irradiation Inducible Promoters, Growth Factors, Inflammatory Cytokines, Adhesion Molecules microRNA, and Bromodomain Epigenetic Reader Proteins by RT-PCR
RNA was extracted from mouse lung or purified cell populations using the TRIzol reagent (Invitrogen, Carlsbad, Calif.) following the manufacturer's instructions, quantified using a spectrophotometer, and stored at −80° C. […]
Data for each gene were normalized by calculating the differences (ΔCt) from the Ct-GUSB and Ct-Target genes. Subsequently, the relative increase or decrease in expression was calculated by comparing the reference gene with the target gene (ΔΔCt) and using the formula for relative expression (=2^ΔΔCt). […]

CC1(C[S+]([O-])CC2(C)COC2)COC1 [compound 3, 3,3′-Sulfinylbis(methylene)bis(3-methyloxetane)]
survival after total body irradiation (C57BL/6NTac mice; 10 mg/kg intraperitoneally 4 hr after irradiation, p=0.0092): significantly increased survival
survival after total body irradiation (C57BL/6NTac mice; 10 mg/kg intraperitoneally 24 hr after irradiation, p=0.0097): significantly increased survival
protection against total body irradiation (C57BL/6NTac mice; intraperitoneal injection before irradiation): protector when delivered prior to irradiation
fibrosis phase mRNA expression [1]: decreased expression of fibrosis phase mRNA expression
